Test system: New Zealand rabbits with normal intraocular pressure
Experiment: Intraocular pressure reduction experiment in New Zealand rabbits with normal intraocular pressure
Format: in vivo
Details: for Intraocular pressure in the left eye: left eye (saline or solvent); for Reduction magnitude of intraocular pressure: left minus right eye
Description: Experimental Example 2. Intraocular Pressure Reduction Experiment in New Zealand Rabbits with Normal Intraocular Pressure
Rabbits with normal intraocular pressure were adopted to screen intraocular pressure reduction actions of the potential compounds by eye-drop administration.
Male New Zealand rabbits, aged 97-127 days, weighted 2.65-3.5 kg, purchased from PizhouDongfang Breeding Co. Ltd.
The male New Zealand rabbits were randomly divided into 8 rabbits/per group using a computer-generated randomization method Animals in each group were eye-dropped with different test samples in the right eye, and normal saline or solvent in the left eye, and the volume of the administration was both 50 μL/eye. The intraocular pressure of the animals was measured before administration and in 1, 2, 4, 6, 8 and 10 hours after the administration, respectively.

## Cc1cn(COC(=O)c2ccccc2)c(=O)c2cccc(S(=O)(=O)N3CCC(N)C3)c12 (stereo not shown) [Compound 60]
5.0 mg/mL group, 1 hour after administration
  Intraocular pressure in the left eye: 11.33 mmHg
5.0 mg/mL group, 2 hours after administration
  Intraocular pressure in the left eye: 11.42 mmHg
5.0 mg/mL group, 4 hours after administration
  Intraocular pressure in the left eye: 12.63 mmHg
5.0 mg/mL group, 6 hours after administration
  Intraocular pressure in the left eye: 12.75 mmHg
5.0 mg/mL group, 8 hours after administration
  Intraocular pressure in the left eye: 13.29 mmHg
5.0 mg/mL group, 10 hours after administration
  Intraocular pressure in the left eye: 14.08 mmHg
5.0 mg/mL group, before administration
  Intraocular pressure in the left eye: 11.79 mmHg
5.0 mg/mL in right eye, 1 hour after administration
  Intraocular pressure in the right eye: 7.83 mmHg
5.0 mg/mL in right eye, 2 hours after administration
  Intraocular pressure in the right eye: 7.00 mmHg
5.0 mg/mL in right eye, 4 hours after administration
  Intraocular pressure in the right eye: 7.79 mmHg
5.0 mg/mL in right eye, 6 hours after administration
  Intraocular pressure in the right eye: 8.54 mmHg
5.0 mg/mL in right eye, 8 hours after administration
  Intraocular pressure in the right eye: 10.13 mmHg
5.0 mg/mL in right eye, 10 hours after administration
  Intraocular pressure in the right eye: 12.54 mmHg
5.0 mg/mL in right eye, before administration
  Intraocular pressure in the right eye: 11.75 mmHg
5.0 mg/mL, 1 hour after administration
  Reduction magnitude of intraocular pressure: 3.5 mmHg
5.0 mg/mL, 2 hours after administration
  Reduction magnitude of intraocular pressure: 4.42 mmHg
5.0 mg/mL, 4 hours after administration
  Reduction magnitude of intraocular pressure: 4.84 mmHg
5.0 mg/mL, 6 hours after administration
  Reduction magnitude of intraocular pressure: 4.21 mmHg
5.0 mg/mL, 8 hours after administration
  Reduction magnitude of intraocular pressure: 3.16 mmHg
5.0 mg/mL, 10 hours after administration
  Reduction magnitude of intraocular pressure: 1.54 mmHg
5.0 mg/mL, before administration
  Reduction magnitude of intraocular pressure: 0.04 mmHg
10.0 mg/mL group, 1 hour after administration
  Intraocular pressure in the left eye: 12.08 mmHg
10.0 mg/mL group, 2 hours after administration
  Intraocular pressure in the left eye: 12.08 mmHg
10.0 mg/mL group, 4 hours after administration
  Intraocular pressure in the left eye: 12.96 mmHg
10.0 mg/mL group, 6 hours after administration
  Intraocular pressure in the left eye: 12.38 mmHg
10.0 mg/mL group, 8 hours after administration
  Intraocular pressure in the left eye: 13.04 mmHg
10.0 mg/mL group, 10 hours after administration
  Intraocular pressure in the left eye: 13.38 mmHg
10.0 mg/mL group, before administration
  Intraocular pressure in the left eye: 11.96 mmHg
10.0 mg/mL in right eye, 1 hour after administration
  Intraocular pressure in the right eye: 7.96 mmHg
10.0 mg/mL in right eye, 2 hours after administration
  Intraocular pressure in the right eye: 6.42 mmHg
10.0 mg/mL in right eye, 4 hours after administration
  Intraocular pressure in the right eye: 7.13 mmHg
10.0 mg/mL in right eye, 6 hours after administration
  Intraocular pressure in the right eye: 8.00 mmHg
10.0 mg/mL in right eye, 8 hours after administration
  Intraocular pressure in the right eye: 9.42 mmHg
10.0 mg/mL in right eye, 10 hours after administration
  Intraocular pressure in the right eye: 10.96 mmHg
10.0 mg/mL in right eye, before administration
  Intraocular pressure in the right eye: 11.33 mmHg
10.0 mg/mL, 1 hour after administration
  Reduction magnitude of intraocular pressure: 4.12 mmHg
10.0 mg/mL, 2 hours after administration
  Reduction magnitude of intraocular pressure: 5.66 mmHg
10.0 mg/mL, 4 hours after administration
  Reduction magnitude of intraocular pressure: 5.83 mmHg
10.0 mg/mL, 6 hours after administration
  Reduction magnitude of intraocular pressure: 4.38 mmHg
10.0 mg/mL, 8 hours after administration
  Reduction magnitude of intraocular pressure: 3.62 mmHg
10.0 mg/mL, 10 hours after administration
  Reduction magnitude of intraocular pressure: 2.42 mmHg
10.0 mg/mL, before administration
  Reduction magnitude of intraocular pressure: 0.63 mmHg
20 mg/mL group, 1 hour after administration
  Intraocular pressure in the left eye: 12.42 mmHg
20 mg/mL group, 2 hours after administration
  Intraocular pressure in the left eye: 12.96 mmHg
20 mg/mL group, 4 hours after administration
  Intraocular pressure in the left eye: 13.17 mmHg
20 mg/mL group, 6 hours after administration
  Intraocular pressure in the left eye: 12.54 mmHg
20 mg/mL group, 8 hours after administration
  Intraocular pressure in the left eye: 13.17 mmHg
20 mg/mL group, 10 hours after administration
  Intraocular pressure in the left eye: 13.71 mmHg
20 mg/mL group, before administration
  Intraocular pressure in the left eye: 12.63 mmHg
20 mg/mL in right eye, 1 hour after administration
  Intraocular pressure in the right eye: 10.21 mmHg
20 mg/mL in right eye, 2 hours after administration
  Intraocular pressure in the right eye: 7.17 mmHg
20 mg/mL in right eye, 4 hours after administration
  Intraocular pressure in the right eye: 7.92 mmHg
20 mg/mL in right eye, 6 hours after administration
  Intraocular pressure in the right eye: 7.63 mmHg
20 mg/mL in right eye, 8 hours after administration
  Intraocular pressure in the right eye: 8.83 mmHg
20 mg/mL in right eye, 10 hours after administration
  Intraocular pressure in the right eye: 10.83 mmHg
20 mg/mL in right eye, before administration
  Intraocular pressure in the right eye: 12.42 mmHg
20 mg/mL, 1 hour after administration
  Reduction magnitude of intraocular pressure: 2.21 mmHg
20 mg/mL, 2 hours after administration
  Reduction magnitude of intraocular pressure: 5.79 mmHg
20 mg/mL, 4 hours after administration
  Reduction magnitude of intraocular pressure: 5.25 mmHg
20 mg/mL, 6 hours after administration
  Reduction magnitude of intraocular pressure: 4.91 mmHg
20 mg/mL, 8 hours after administration
  Reduction magnitude of intraocular pressure: 4.34 mmHg
20 mg/mL, 10 hours after administration
  Reduction magnitude of intraocular pressure: 2.88 mmHg
20 mg/mL, before administration
  Reduction magnitude of intraocular pressure: 0.21 mmHg
Concentrations of 2.5, 5 and 10 mg/mL
  Reduction of intraocular pressure: remarkably significant reduction of intraocular pressure

From patent US12459918B2, “Isoquinolinone derivatives serving as rock protein kinase inhibitors and use thereof” (GUANGZHOU OCUSUN OPHTHALMIC BIOTECHNOLOGY CO., LTD., priority 2019, dated 2025)
